Columns and labels:
HER2 = HER2 (Homo sapiens (Human), UniProt P04626); assay: In vitro enzymology test (HTRF kinase activity); type: biochemical; settings: read-out: Enzyme activity (IC50 nM) HER2
Text: 1. The Method for In Vitro Enzymology Test
EGFR, EGFR (T790M, L858R), HER2 kinase were expressed and purified through an insect cell expression system by the Department of Biology, Centaurus Biopharma, Beijing, or purchased from commercially available products.
The platform for testing the kinase activity of EGFR, EGFR (T790M, L858R) and HER2 was established based on the homogeneous time-resolved fluorescence (HTRF) method provided by Cisbio Bioassays, and the activity of the compounds was determined with the platform. […]. And 2.5 μL of the mixture was taken, added into 384-well plates (OptiPlate-384, PerkinElmer), then 2.5 μL of kinase was added, mixed thoroughly by centrifuge. Then 5 μL of ATP and TK Substrate-biotin were added to initiate the reaction. The 384-well plates were incubated at 23° C. in an incubator for a certain period of time, then 5 μL of Eu3^+-Cryptate labeled TK-Antibody and 5 μL of streptavidin-XL665 were added to stop the reaction. After 1 h incubation in an incubator, the fluorescence value was read on Envision (PerkinElmer). The IC50 value of the compound was calculated with the software GraphPad Prism 5.0.

[1] = Pharmacokinetics test on rats; type: in vivo; settings: rat, po; male rats, gavage, single dose 5 mg/kg, plasma
Experimental: Pharmacokinetics Test on Rats
In this study, 6 healthy adult male rats (from Beijing Vital River Laboratory Animal Technology Co., Ltd.) were used. The animals were fast overnight before the experiment. The fasting period was from 12 h prior to the administration, till 4 h after the administration. Drug administration was performed through gavage at a single dose of 5 mg/kg. The compounds to be tested were dissolved in 20% aqueous solution of sulfobutyl-β-cyclodextrin (SBE). Blood samples were collected 0.25, 0.5, 1, 2, 4, 6, 8 and 24 hours after drug administration. During blood sampling, the animals were lightly anesthetized with isoflurane, and approximately 0.5 mL whole blood was collected from retro-orbital venous sinus, placed into tubes that contain heparin as anticoagulant. The samples were centrifuged at 4° C., 4000 rpm for 5 min. The plasma was transferred into centrifuge tubes, and stored at −80° C. till being analyzed. The drug concentration in the plasma was quantitatively analyzed with liquid chromatography-tandem mass spectrometry (LC-MS/MS). From the analysis result of the samples, the pharmacokinetic parameter of the compounds was calculated with WinNonlin (WinNonlin Professional, version […]).

[2] = system: NCI-H1975, a human non-small cell lung cancer cell; assay: Proliferation test of anchorage-independent cells; type: cell-based; settings: 168 h, NCI-H1975, soft agarose, 7 days, CellTiter-Blue
Experimental: (§1) 2. Proliferation Test of Anchorage-Independent Cells
(§2) NCI-H1975, a human non-small cell lung cancer cell, and BT474, a human breast cancer cell line, were incubated with RPIM-1640 or DMEM medium supplemented with 10% fetal bovine serum (FBS) in a cell incubator (37° C., 5% CO2). In the test of the compounds, the coated substrate with a concentration of 0.6% was used. The cells were screened with 0.3% low melting point agarose, then plated into 96-well plates with a density of 10,000 cells per well (100 μL). Starting from 10 mM, the compounds were diluted in a gradient of 3 times. For each concentration, 2 μL of the solution was taken and added into 98 μL of medium, then 5.3 μL of the mixture was added into the cell culture medium (where the final concentration of DMSO was 0.1%, v/v). After one week (7 days) of treatment, 20 μL of CellTiter-Blue®reagent (Promega) was added, incubated at 37° C. for 4 h. The fluorescent signal was read on Envison (Perkin Elmer).

[3] = system: BT474, a human breast cancer cell line; assay: Proliferation test of anchorage-independent cells; type: cell-based; settings: BT-474, 168 h, BT474, soft agarose, 7 days, CellTiter-Blue
Experimental: as §1, §2

HER2, sequence (P04626 23-1255): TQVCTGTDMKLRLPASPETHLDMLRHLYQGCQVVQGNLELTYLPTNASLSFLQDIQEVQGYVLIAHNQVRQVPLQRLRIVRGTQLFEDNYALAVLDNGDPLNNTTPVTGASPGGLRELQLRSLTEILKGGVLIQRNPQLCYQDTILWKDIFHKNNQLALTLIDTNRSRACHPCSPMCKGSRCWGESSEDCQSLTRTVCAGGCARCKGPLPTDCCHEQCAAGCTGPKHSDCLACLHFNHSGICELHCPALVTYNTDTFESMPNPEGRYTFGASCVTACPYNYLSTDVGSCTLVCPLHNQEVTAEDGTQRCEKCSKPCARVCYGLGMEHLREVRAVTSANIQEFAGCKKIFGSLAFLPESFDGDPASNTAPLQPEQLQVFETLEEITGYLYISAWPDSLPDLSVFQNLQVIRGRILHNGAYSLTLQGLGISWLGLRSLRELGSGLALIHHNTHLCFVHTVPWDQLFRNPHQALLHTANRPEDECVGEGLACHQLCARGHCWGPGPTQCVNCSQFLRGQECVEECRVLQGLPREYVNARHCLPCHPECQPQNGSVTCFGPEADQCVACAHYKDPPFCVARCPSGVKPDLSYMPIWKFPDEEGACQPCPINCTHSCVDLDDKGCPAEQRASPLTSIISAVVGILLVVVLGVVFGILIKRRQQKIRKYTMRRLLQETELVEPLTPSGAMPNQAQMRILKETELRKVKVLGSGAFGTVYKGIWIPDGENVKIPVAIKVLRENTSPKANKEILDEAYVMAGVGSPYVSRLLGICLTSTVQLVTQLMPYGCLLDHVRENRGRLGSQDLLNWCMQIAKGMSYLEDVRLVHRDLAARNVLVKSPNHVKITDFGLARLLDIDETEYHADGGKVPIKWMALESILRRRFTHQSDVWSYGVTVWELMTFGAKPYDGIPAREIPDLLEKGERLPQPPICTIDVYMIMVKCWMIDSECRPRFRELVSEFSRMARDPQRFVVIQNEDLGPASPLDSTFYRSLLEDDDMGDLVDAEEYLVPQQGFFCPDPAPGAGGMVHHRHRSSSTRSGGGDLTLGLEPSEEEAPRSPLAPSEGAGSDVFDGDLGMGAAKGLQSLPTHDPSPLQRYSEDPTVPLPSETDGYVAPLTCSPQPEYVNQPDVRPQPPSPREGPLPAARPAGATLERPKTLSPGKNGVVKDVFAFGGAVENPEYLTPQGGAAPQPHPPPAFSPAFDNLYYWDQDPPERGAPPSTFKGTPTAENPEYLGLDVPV

Row | Structure (SMILES) | IC50 (HER2) [nM] | AUC(0-inf) [1] [ng·h/mL] | Cmax [1] [ng/mL] | Tmax [1] [h] | half-life [1] [h] | IC50 [2] [nM] | IC50 [3] [nM]
1 | C=CC(=O)N1CC(Nc2cc3c(Nc4ccc(F)c(Cl)c4)ncnc3cc2OC)C1 [Example 1, N^6-(1-acryloylazetidin-3-yl)-N^4-(3-chloro-4-fluorophenyl)-7-methoxyquinazoline-4,6-diamine] | 0.5 | 1350 | 588 | 0.5 | 1.3 | 21.8 | 4.2
2 | C=CC(=O)N1CCC(Nc2cc3c(Nc4ccc(F)c(Cl)c4)ncnc3cc2OC)CC1 [Example 2, N^6-(1-acryloylpiperidin-4-yl)-N^4-(3-chloro-4-fluorophenyl)-7-methoxyquinazoline-4,6-diamine] | 0.2 | 11000 | 1970 | 1 | 2.39 | 14 | 2.1
3 | C=CC(=O)N1CC(Nc2cc3c(Nc4ccc(F)c(Cl)c4)ncnc3cc2O[C@H]2CCOC2)C1 [Example 3, (S)—N^6-(1-acryloylazetidin-3-yl)-N^4-(3-chloro-4-fluorophenyl)-7-(tetrahydrofuran-3-yloxy)quinazoline-4,6-diamine] | 0.3 | – | – | – | – | 31.4 | 5.1
4 | C=CC(=O)N1CCC(Nc2cc3c(Nc4ccc(F)c(Cl)c4)ncnc3cc2O[C@H]2CCOC2)CC1 [Example 4, (S)—N^6-(1-acryloylpiperidin-4-yl)-N^4-(3-chloro-4-fluorophenyl)-7-(tetrahydrofuran-3-yloxy)quinazoline-4,6-diamine] | 0.4 | – | – | – | – | 25.6 | 1.6
5 | C=CC(=O)N1CCC(Nc2cc3c(Nc4ccc(OCc5ccccn5)c(Cl)c4)ncnc3cc2OC)CC1 [Example 8, 1-(4-(4-(3-chloro-4-(pyridin-2-ylmethoxy)phenylamino)-7-methoxyquinazoline-6-ylamino)piperidin-1-yl)prop-2-ene-1-one] | 1.2 | – | – | – | – | 244 | 62.1
6 | C=CC(=O)N1CC(Nc2cc3c(Nc4cccc(C(C)=O)c4)ncnc3cc2OC)C1 [Example 13, N^4-(3-acetylphenyl)-N^6-(1-acryloylazetidin-3-yl)-7-methoxyquinazoline-4,6-diamine] | 0.5 | – | – | – | – | – | –
7 | C=CC(=O)N1CC(Nc2cc3c(Nc4cccc(Br)c4)ncnc3cc2OC)C1 [Example 14, N^6-(1-acryloylazetidin-3-yl)-N^4-(3-bromophenyl)-7-methoxyquinazoline-4,6-diamine] | 0.2 | – | – | – | – | 59.3 | 4.6
8 | C=CC(=O)N1CCC(Nc2cc3c(Nc4cccc(Br)c4)ncnc3cc2OC)CC1 [Example 15, N^6-(1-acryloylpiperidin-4-yl)-N^4-(3-bromophenyl)-7-methoxyquinazoline-4,6-diamine] | 0.2 | – | – | – | – | 56 | 4.2
9 | C=CC(=O)N1CC(Nc2cc3c(Nc4ccc(F)c(Cl)c4)ncnc3cc2OCCOC)C1 [Example 16, N^6-(1-acryloylazetidin-3-yl)-N^4-(3-chloro-4-fluorophenyl)-7-(2-methoxyethoxy)quinazoline-4,6-diamine] | 0.3 | – | – | – | – | 32.4 | 8.7
10 | C=CC(=O)N1CCC(Nc2cc3c(Nc4ccc(F)c(Cl)c4)ncnc3cc2OCCOC)CC1 [Example 17, N^6-(1-acryloylpiperidin-4-yl)-N^4-(3-chloro-4-fluorophenyl)-7-(2-methoxyethoxy)quinazoline-4,6-diamine] | 0.4 | – | – | – | – | 71.5 | 4.7
11 | C=CC(=O)N1CC(Sc2cc3c(Nc4ccc(F)c(Cl)c4)ncnc3cc2OC)C1 [Example 19, 6-(1-acryloylazetidin-3-yl)-thio-N-(3-chloro-4-fluorophenyl)-7-methoxyquinazoline-4-amine] | – | – | – | – | – | 274 | 97.1
